# Measured values reported in patent publication US8716475B2, “2-aminopyrimidine modulators of the histamine H4 receptor” (Janssen Pharmaceutica NV, priority 2007, dated 2014).
# Target: T1, human H4 receptor (Homo sapiens, UniProt Q9H3N8)
# T1 construct: expressed in transfected cells
# Assay: Binding Assay on Recombinant Human Histamine H4 Receptor
# Details: [3H] histamine competition binding
# Summary of the method: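 Radioligand binding used membranes from SK-N-MC cells stably or transiently expressing human H4, prepared in 50 mM Tris/5 mM EDTA. Nonspecific binding was defined with 100 μM histamine. Bound radioactivity was counted after filtration on PEI-treated GF/C filters, and ">" values are the highest concentration tested.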
# [1] = Table 2, membranes of SK-N-MC cells transfected with human H4 receptor, average of results
# [2] = Table 2, data marked with an asterisk (*): obtained by the cell harvester method, SK-N-MC membranes
SMILES,Ki [1],Ki [2]
"Nc1nc(C2CCOCC2)cc(N2CC[C@@H](N)C2)n1 [Example 249, (R)-4-(3-Amino-pyrrolidin-1-yl)-6-(tetrahydro-pyran-4-yl)-pyrimidin-2-ylamine]",87 nM,
"Nc1nc(C2Cc3ccccc3C2)cc(N2CC3CCCNC3C2)n1 (centres unmarked) [Example 251, 4-Indan-2-yl-6-(octahydro-pyrrolo[3,4-b]pyridin-6-yl)-pyrimidin-2-ylamine]",,20 nM
"Nc1nc2c(c(N3CC(N)C3)n1)COCC2 [Example 252, 4-(3-Amino-azetidin-1-yl)-7,8-dihydro-5H-pyrano[4,3-d]pyrimidin-2-ylamine]",> 10000 nM,
"Nc1nc2c(c(N3CC(N)C3)n1)CCCC2 [Example 253, 4-(3-Amino-azetidin-1-yl)-5,6,7,8-tetrahydro-quinazolin-2-ylamine]",> 10000 nM,
"CN1C[C@@H]2CN(c3nc(N)nc4c3COCC4)C[C@@H]2C1 [Example 254, 4-(cis-5-Methyl-hexahydro-pyrrolo[3,4-c]pyrrol-2-yl)-7,8-dihydro-5H-pyranol-[4,3-d]pyrimidin-2-ylamine]",> 10000 nM,

# Now from value to compound:
Ki [1],Ki [2],SMILES
3 nM,,"Nc1nc(CCc2ccccc2)cc(N2CCNCC2)n1 [Example 247, 4-Phenethyl-6-piperazin-1-yl-pyrimidin-2-ylamine]"
9 nM,,"Nc1nc(CCc2ccccc2)cc(N2CC(N)C2)n1 [Example 248, 4-(3-Amino-azetidin-1-yl)-6-phenethyl-pyrimidin-2-ylamine]"
,564 nM,"CN(CCN)c1cc(Cc2ccccc2)nc(N)n1 [Example 250, N^4-(2-Amino-ethyl)-6-benzyl-N^4-methyl-pyrimidine-2,4-diamine]"
